The results in this text go back to patent US20260242395A1, “AMINOHETEROARYL KINASE INHIBITORS” (ALLORION THERAPEUTICS INC, priority 2022, published 2026).

Format in all cases: biochemical
One assay deals with T1, CDK2/CyclinE1 (Homo sapiens, UniProt P24941).
T1 construct: purchased Carna 04-165
The experiment in a line: CDK2/CyclinE1 kinase inhibitory activity (Caliper mobility shift). The following applies: enzyme 3 nM, ATP 77 μM, 28° C. 30 min; read-out: CDK2/Cyclin E1 IC50. The protocol:
CDK2/CyclinE1 kinase inhibitory activity (IC50): 5 μl of various dilutions of test compounds in 1×kinase buffer (50 mM HEPES pH 7.5, 10 mM MgCl2, 2 mM DTT and […] Brij-35) were mixed with 10 μL of CDK2/CyclinE1 (Carna, 04-165 #, final concentration 3 nM in 1×Kinase buffer) in 384 plates and incubated at room temperature for 10 min. To initiate each reaction, 10 μL of peptide solution containing fluorescently-labeled-peptide 18(5-FAM-QSPKKG-CONH2) (GL, 114202 #, final concentration 3000 nM) and ATP (final concentration 77 μM) in 1×Kinase buffer was added to each of the wells containing test compound and CDK2/CyclinE1 mixture. The reaction was then allowed to proceed at 28° C. for 30 min and terminated by the addition of 25 μL stop buffer (100 mM HEPES pH 7.5, 50 mM EDTA, 0.2% Coating Reagent #3 (Perkin Elmer, 760050 #) and 0.015% Brij-35).
(§1) Following the kinase reaction, Caliper EZ reader II (Downstream voltages: −500V, Upstream voltages: −2250V, Base pressure −0.5 PSI, Screen pressure −1.2 PSI) was used to separate the phosphorylated (product) and the unphosphorylated (substrate) fluorescently-labeled peptide 18 based on their different mobility. Both substrate and product were measured and the ratio of these values were used to generate % conversion by Caliper EZ reader II. These conversion values were then transformed into % inhibition of kinase activity using the formula: % Inhibition=[(MA−X)/(MA−MI)]×100% where MA=conversion value of DMSO only controls, MI=conversion value of no enzyme controls and X=conversion value at any given compound dose. IC50 values were then calculated by plotting dose-response curves and then using the XLfit application in Excel software.

A further assay addresses T2, CDK9/CyclinT1 (Homo sapiens, UniProt P50750).
T2 construct: purchased Millipore 14-685M
The assay is described as follows: CDK9/CyclinT1 kinase inhibitory activity (Caliper mobility shift). The note with it: enzyme 12.5 nM, ATP 10M, 28° C. 30 min; read-out: CDK9/Cyclin T1 IC50. The method, then: CDK9/CyclinT1 kinase inhibitory activity (IC50): 5 μl of various dilutions of test compound in 1× kinase buffer (20 mM HEPES, pH 7.5, 10 mM MgCl2, 2 mM DTT and 0.01% Triton X-100) was mixed with 10 μL of CDK9/CyclinT1 (Millipore, 14-685M #, final concentration 12.5 nM in 1× Kinase buffer) in 384 plates and incubated at room temperature for 10 min. To initiate each reaction, 10 μL of peptide solution containing fluorescently-labeled -peptide CTD3 (5-FAM-[…], GL, SY346885 #, final concentration 3000 nM) and ATP (final concentration […]) in 1× Kinase buffer was added to each of the wells containing test compound and CDK9/CyclinT1 mixture. The reaction is then allowed to proceed at 28° C. for 30 min and terminated by the addition of 25 μL stop buffer (100 mM HEPES pH 7.5, 50 mM EDTA, 0.2% Coating Reagent #3 (Perkin Elmer, 760050 #) and 0.015% Brij-35).
as §1, with “CTD3” for “18”

A further assay addresses T3, CDK6/CyclinD3 (Homo sapiens, UniProt Q00534).
T3 construct: purchased Carna 04-107
The assay is described as follows: CDK6/CyclinD3 kinase inhibitory activity (Caliper mobility shift). The following applies: enzyme 15 nM, ATP 800 μM, 28° C. 30 min; read-out: CDK6/Cyclin D3 IC50. In short, it runs like this: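 Compound preincubated 10 min at room temperature with CDK6/CyclinD3 (15 nM final) in HEPES pH 7.5/MgCl2/DTT buffer; reaction with 5-FAM peptide (3000 nM) and ATP 800 μM, 30 min at 28°C, stopped with EDTA. Substrate/product separated by microfluidic mobility shift; % conversion converted to % inhibition, IC50 from dose-response curves.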

T3 sequence (Q00534 whole entry): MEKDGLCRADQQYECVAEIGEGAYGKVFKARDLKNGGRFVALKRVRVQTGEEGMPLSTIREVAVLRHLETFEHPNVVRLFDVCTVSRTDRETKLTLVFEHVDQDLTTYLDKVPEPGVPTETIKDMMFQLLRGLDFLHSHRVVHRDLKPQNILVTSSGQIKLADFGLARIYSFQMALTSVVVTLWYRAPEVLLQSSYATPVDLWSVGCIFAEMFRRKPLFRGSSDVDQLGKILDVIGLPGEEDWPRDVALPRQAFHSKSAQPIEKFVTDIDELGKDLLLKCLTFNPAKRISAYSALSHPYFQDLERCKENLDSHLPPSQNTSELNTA
T3 sequence (P30281 whole entry partner): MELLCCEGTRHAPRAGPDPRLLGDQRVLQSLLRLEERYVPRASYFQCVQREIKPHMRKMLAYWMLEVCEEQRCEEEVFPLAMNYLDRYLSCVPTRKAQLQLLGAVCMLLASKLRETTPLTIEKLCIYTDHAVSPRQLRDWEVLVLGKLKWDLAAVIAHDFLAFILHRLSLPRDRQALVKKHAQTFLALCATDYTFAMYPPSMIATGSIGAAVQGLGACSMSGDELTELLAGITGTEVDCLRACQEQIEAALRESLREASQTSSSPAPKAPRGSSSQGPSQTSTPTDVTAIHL
T2 sequence (P50750 whole entry): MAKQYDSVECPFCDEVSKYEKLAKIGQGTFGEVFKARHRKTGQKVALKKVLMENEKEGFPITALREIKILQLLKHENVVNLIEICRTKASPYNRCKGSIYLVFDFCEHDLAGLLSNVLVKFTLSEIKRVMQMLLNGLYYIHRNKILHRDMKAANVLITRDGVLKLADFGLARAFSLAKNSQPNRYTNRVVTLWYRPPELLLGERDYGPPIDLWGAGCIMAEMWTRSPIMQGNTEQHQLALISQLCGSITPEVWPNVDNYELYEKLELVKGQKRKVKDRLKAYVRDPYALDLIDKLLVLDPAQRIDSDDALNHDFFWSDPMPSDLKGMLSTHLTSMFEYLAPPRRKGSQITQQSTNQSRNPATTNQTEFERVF
T2 sequence (O60563 whole entry partner): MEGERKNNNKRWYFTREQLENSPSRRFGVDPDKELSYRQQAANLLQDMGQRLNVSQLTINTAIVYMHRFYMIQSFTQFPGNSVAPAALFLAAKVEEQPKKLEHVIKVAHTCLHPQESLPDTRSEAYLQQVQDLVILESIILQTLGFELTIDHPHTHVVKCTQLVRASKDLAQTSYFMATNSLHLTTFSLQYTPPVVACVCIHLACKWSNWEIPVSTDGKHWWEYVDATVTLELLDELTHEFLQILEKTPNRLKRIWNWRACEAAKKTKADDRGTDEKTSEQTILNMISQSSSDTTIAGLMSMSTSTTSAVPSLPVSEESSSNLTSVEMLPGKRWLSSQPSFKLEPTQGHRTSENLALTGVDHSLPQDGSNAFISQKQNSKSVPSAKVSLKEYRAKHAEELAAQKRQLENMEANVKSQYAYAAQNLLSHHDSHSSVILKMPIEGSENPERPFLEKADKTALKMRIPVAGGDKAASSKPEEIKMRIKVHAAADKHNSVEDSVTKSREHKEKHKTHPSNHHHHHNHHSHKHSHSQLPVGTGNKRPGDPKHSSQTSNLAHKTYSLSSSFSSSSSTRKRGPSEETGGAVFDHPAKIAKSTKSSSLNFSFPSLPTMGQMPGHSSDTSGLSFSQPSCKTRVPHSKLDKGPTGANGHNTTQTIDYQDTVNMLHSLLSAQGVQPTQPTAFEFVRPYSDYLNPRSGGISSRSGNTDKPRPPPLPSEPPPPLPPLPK

As to `Cc1c(C(C)NC2CC2)cnc2c(F)cc(-c3nc(N[C@@H]4CCOC[C@H]4O)ncc3Cl)cc12` (single isomer, unassigned) [Example 91b], the results for the IC50 on CDK2/CyclinE1, on CDK9/CyclinT1 and on CDK6/CyclinD3 were 100 to 1000 nM, not below 1000 nM and 100 to 1000 nM, respectively.
`CC(C)(N)c1cnc2ccc(-c3nc(N[C@@H]4CCOC[C@H]4O)ncc3Cl)cc2c1` [Example 26]: the IC50 was 100 to 1000 nM on CDK2/CyclinE1, 100 to 1000 nM at CDK9/CyclinT1 and not below 1000 nM at CDK6/CyclinD3.
As for `Cc1c(C(C)(C)O)cnc2c(F)cc(-c3nc(N[C@@H]4CCOC[C@H]4O)ncc3F)cc12` [Example 23, (3S,4R)-4-((5-fluoro-4-(8-fluoro-3-(2-hydroxypropan-2-yl)-4-methylquinolin-6-yl)pyrimidin-2-yl)amino)tetrahydro-2H-pyran-3-ol], the IC50 is 10 to 100 nM at CDK2/CyclinE1, 100 to 1000 nM on CDK9/CyclinT1 and 10 to 100 nM at CDK6/CyclinD3.
Consider `Cc1nc2c(F)cc(-c3nc(N[C@@H]4CCOC[C@H]4O)ncc3Cl)cc2c(C)c1[C@@H](C)O` (single isomer, unassigned) [Example 15a], for which the values for the IC50 at CDK2/CyclinE1, on CDK9/CyclinT1 and at CDK6/CyclinD3 were 100 to 1000 nM, 100 to 1000 nM and 10 to 100 nM, respectively.
`CNC(C)c1cnc2c(F)cc(-c3nc(N[C@@H]4CCOC[C@H]4O)ncc3Cl)cc2c1` (single isomer, unassigned) [Example 32a]: the IC50 on CDK2/CyclinE1 is 10 to 100 nM; at CDK9/CyclinT1, 100 to 1000 nM; on CDK6/CyclinD3 it was 100 to 1000 nM.
Turning to `O[C@@H]1COCC[C@H]1Nc1ncc(Cl)c(-c2cc(F)c3ncc(C4(O)CC4)cc3c2)n1` [Example 29], the IC50 on CDK2/CyclinE1, on CDK9/CyclinT1 and on CDK6/CyclinD3 was 100 to 1000 nM in each case.
For the molecule `Cc1nc2c(F)cc(-c3nc(N[C@@H]4CCOC[C@H]4O)ncc3F)cc2c(C)c1C(C)O` (single isomer, unassigned) [Example 81a], the IC50 was in the range of 100 to 1000 nM on CDK2/CyclinE1, 10 to 100 nM at CDK9/CyclinT1 and 10 to 100 nM on CDK6/CyclinD3.
Turning to `O[C@@H]1COCC[C@H]1Nc1ncc(F)c(-c2cc(F)c3ncc4c(c3c2)CNC2(CC2)C4)n1` [Example 56], the IC50 lay within 10 to 100 nM at CDK2/CyclinE1, 10 to 100 nM on CDK9/CyclinT1 and 100 to 1000 nM on CDK6/CyclinD3.
Consider `CC1(C)Cc2cnc3c(F)cc(-c4ccnc(N[C@@H]5CCOC[C@H]5O)n4)cc3c2CN1` [Example 107], for which the IC50 on CDK2/CyclinE1, at CDK9/CyclinT1 and on CDK6/CyclinD3 was 100 to 1000 nM in each case.
For the molecule `Cc1nc2c(F)cc(-c3nc(N[C@@H]4CCOC[C@H]4O)ncc3F)cc2c2c1CC1(CC1)NC2` [Example 65], the IC50 at CDK2/CyclinE1, on CDK9/CyclinT1 and at CDK6/CyclinD3 was 100 to 1000 nM throughout.
As for `Cc1c(C(C)(C)O)cnc2c(C)cc(-c3nc(N[C@@H]4CCOC[C@H]4O)ncc3Cl)cc12` [Example 58], the results for the IC50 on CDK2/CyclinE1, on CDK9/CyclinT1 and at CDK6/CyclinD3 were not below 1000 nM, not below 1000 nM and 100 to 1000 nM, respectively.
For `O[C@@H]1COCC[C@H]1Nc1ncc(Cl)c(-c2cc(F)c3c(c2)N2CCNC[C@@H]2CO3)n1` [Example 19, (3S,4R)-4-((5-chloro-4-((R)-7-fluoro-1,2,3,4,4a,5-hexahydrobenzo[b]pyrazino[1,2-d][1,4]oxazin-9-yl)pyrimidin-2-yl)amino)tetrahydro-2H-pyran-3-ol], the IC50 on CDK2/CyclinE1, on CDK9/CyclinT1 and at CDK6/CyclinD3 was 10 to 100 nM in each case.
Consider `Cc1nc2c(F)cc(-c3nc(N[C@@H]4CCOC[C@H]4O)ncc3Cl)cc2cc1C1CCCN1` (single isomer, unassigned) [Example 57a], for which the IC50 at CDK2/CyclinE1, at CDK9/CyclinT1 and at CDK6/CyclinD3 was 100 to 1000 nM each time.
Consider `O[C@@H]1COCC[C@H]1Nc1ncc(Cl)c(-c2cc(F)c3ncc4c(c3c2)CNC2(CC2)C4)n1` [Example 21, (3S,4R)-4-((5-chloro-4-(7-fluoro-1,4-dihydro-2H-spiro[benzo[c][2,6]naphthyridine-3,1′-cyclopropan]-9-yl)pyrimidin-2-yl)amino)tetrahydro-2H-pyran-3-ol], for which the IC50 at CDK2/CyclinE1, at CDK9/CyclinT1 and at CDK6/CyclinD3 was 100 to 1000 nM each time.
Turning to `O[C@@H]1COCC[C@H]1Nc1cc(-c2cc(F)c3ncc4c(c3c2)CNCC4)c(Cl)cn1` [Example 25], the IC50 on CDK2/CyclinE1, at CDK9/CyclinT1 and on CDK6/CyclinD3 was 10 to 100 nM in each case.
As for `CC1(C)Cc2cnc3c(F)cc(-c4nc(N[C@@H]5CCOC[C@H]5O)ncc4F)cc3c2CN1` [Example 24, (3S,4R)-4-((5-fluoro-4-(7-fluoro-3,3-dimethyl-1,2,3,4-tetrahydrobenzo[c][2,6]naphthyridin-9-yl)pyrimidin-2-yl)amino)tetrahydro-2H-pyran-3-ol], the IC50 at CDK2/CyclinE1, on CDK9/CyclinT1 and at CDK6/CyclinD3 was 10 to 100 nM in each case.
For `CC1Cc2cnc3c(F)cc(-c4nc(N[C@@H]5CCOC[C@H]5O)ncc4Cl)cc3c2CN1` (single isomer, unassigned) [Example 34b], the IC50 at CDK2/CyclinE1, on CDK9/CyclinT1 and on CDK6/CyclinD3 was 100 to 1000 nM each time.
As to `Cc1nc2c(F)cc(-c3nc(N[C@@H]4CCOC[C@H]4O)ncc3Cl)cc2cc1C(C)(C)O` [Example 5, (3S,4R)-4-((5-chloro-4-(8-fluoro-3-(2-hydroxypropan-2-yl)-2-methylquinolin-6-yl)pyrimidin-2-yl)amino)tetrahydro-2H-pyran-3-ol], the IC50 on CDK2/CyclinE1, on CDK9/CyclinT1 and on CDK6/CyclinD3 was 100 to 1000 nM in each case.
With `CC1(C)Cc2cnc3c(F)cc(-c4nc(N[C@@H]5CCOC[C@H]5O)ncc4C#N)cc3c2CN1` [Example 49], the IC50 on CDK2/CyclinE1, at CDK9/CyclinT1 and on CDK6/CyclinD3 was 100 to 1000 nM in each case.
Regarding `CC(C)(O)c1cnc2c(F)cc(-c3nc(N[C@@H]4CCOC[C@H]4O)ncc3Cl)cc2c1Cl` [Example 17, (3S,4R)-4-((5-chloro-4-(4-chloro-8-fluoro-3-(2-hydroxypropan-2-yl)quinolin-6-yl)pyrimidin-2-yl)amino)tetrahydro-2H-pyran-3-ol], the values for the IC50 on CDK2/CyclinE1, on CDK9/CyclinT1 and at CDK6/CyclinD3 were 100 to 1000 nM, 100 to 1000 nM and 10 to 100 nM, respectively.
In the case of `[2H]c1nc(N[C@@H]2CCOC[C@H]2O)nc(-c2cc(F)c3nc([2H])c4c(c3c2)CNC2(CC2)C4)c1Cl` [Example 68], the IC50 at CDK2/CyclinE1 was in the range of 100 to 1000 nM; at CDK9/CyclinT1, 100 to 1000 nM; on CDK6/CyclinD3 it was 10 to 100 nM.
For the molecule `Cc1nc2c(F)cc(-c3nc(N[C@@H]4CCOC[C@H]4O)ncc3Cl)cc2c(C)c1[C@H](C)O` (single isomer, unassigned) [Example 15b], the IC50 was in the range of 100 to 1000 nM on CDK2/CyclinE1, 100 to 1000 nM at CDK9/CyclinT1 and 10 to 100 nM at CDK6/CyclinD3.
For the molecule `Cc1c(C(C)O)cnc2c(F)cc(-c3nc(N[C@@H]4CCOC[C@H]4O)ncc3Cl)cc12` (single isomer, unassigned) [Example 88a], the IC50 is 100 to 1000 nM at CDK2/CyclinE1, 100 to 1000 nM on CDK9/CyclinT1 and 10 to 100 nM at CDK6/CyclinD3.
As to `[2H]c1nc2c(F)cc(-c3nc(N[C@@H]4CCOC[C@H]4O)ncc3F)cc2c(C)c1C(C)(C)O` [Example 94], the values for the IC50 on CDK2/CyclinE1, on CDK9/CyclinT1 and on CDK6/CyclinD3 were 100 to 1000 nM, 100 to 1000 nM and 10 to 100 nM, respectively.
